Formation of tumors, growth of tumors and IC50 data for 3 compounds are collected here from US20080146624A1, “AMIDINES AS MODULATORS OF INDOLEAMINE 2,3-DIOXYGENASE” (INCYTE CORPORATION, priority 2006, published 2008).

Molecules are shown by their SMILES.

One experiment has as its system LLC tumors. To be noted: C57B1/6 mice, versus placebo; cited from earlier work.
The next experiment has as its system P815 tumor. Conditions: pre-immunized immune-competent mice; cited from earlier work.
In experiment [1] the target is T1, Human indoleamine 2,3-dioxygenasae (IDO) (Homo sapiens, UniProt P14902).
T1 construct: His tag (N); made in house; host or cells: E. coli
T1 sequence (P14902 whole entry): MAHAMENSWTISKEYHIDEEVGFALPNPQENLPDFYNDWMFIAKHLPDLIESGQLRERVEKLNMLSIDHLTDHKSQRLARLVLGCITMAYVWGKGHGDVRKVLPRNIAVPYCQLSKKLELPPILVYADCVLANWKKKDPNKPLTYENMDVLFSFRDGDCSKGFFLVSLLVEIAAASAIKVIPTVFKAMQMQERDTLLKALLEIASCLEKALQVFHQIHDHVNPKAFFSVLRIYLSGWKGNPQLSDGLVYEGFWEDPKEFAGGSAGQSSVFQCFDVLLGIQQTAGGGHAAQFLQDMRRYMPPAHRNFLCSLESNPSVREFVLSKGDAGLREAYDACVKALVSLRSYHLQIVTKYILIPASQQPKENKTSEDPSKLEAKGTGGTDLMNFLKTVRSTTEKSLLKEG
In words: Human indoleamine 2,3-dioxygenase (IDO) enzyme assay. In kind it is biochemical. To be noted: 95 nM IDO, 2 mM D-Trp, pH 6.5, room temperature, absorbance at 321 nm. The procedure:
Human indoleamine 2,3-dioxygenasae (IDO) with an N-terminal His tag was expressed in E. coli and purified to homogeneity. IDO catalyzes the oxidative cleavage of the pyrrole ring of the indole nucleus of tryptophan to yield N′-formylkynurenine. The assays were performed at room temperature as described in the literature using 95 nM IDO and 2 mM D-Trp in the presence of 20 mM ascorbate, 5 μM methylene blue and 0.2 mg/mL catalase in 50 mM potassium phosphate buffer (pH 6.5). The initial reaction rates were recorded by continuously following the absorbance increase at 321 nm due to the formation of N′-formlylkynurenine. […] The symbol “+” indicates IC50<[…]. The symbol “++” indicates […]. The symbol “+++” indicates IC50>[…].

As to `Cn1cc(C[C@H](N)C(=O)O)c2ccccc21` [Example 1-MT, 1-methyl-tryptophan], the formation of tumors result in the experiment with LLC tumors is “markedly delayed”. Also, in the experiment with P815 tumor, the growth of tumors result is recorded as “inhibited”. Turning to `N#Cc1cccc(NC(=NO)c2ccoc2)c1` [Example 11, N-(3-cyanophenyl)-N′-hydroxy-furan-3-carboximidamide], the IC50 in experiment [1] is greater than 10 µM. Still for that read-out and setting: the value for `N#Cc1cc(NC(=NO)c2ccoc2)ccc1F` [Example 12, N-(3-cyano-4-fluorophenyl)-N′-hydroxyfuran-3-carboximidamide] was greater than 10 µM.

Usually IC50 stands for the concentration at which inhibition is half-maximal.
